“Also recorded” adds a separate entry of the source.
Assays:
[1] = Metabolic intrinsic clearance in mouse hepatocytes; format: in vitro ADME, CD-1 mouse; conditions: CD-1, cryopreserved hepatocytes in suspension, pH 7.5, 0.5 million cells/mL, incubation for 4 hours
Description: (§1) The metabolic intrinsic clearance (CLint) of Compound 87 was determined in human, monkey, dog, rat, and mouse hepatocytes. Cryopreserved human hepatocytes (Lot Hue50c), monkey hepatocytes (cynomolgus; Lot Cy328), dog hepatocytes (beagle, Lot Db235), rat hepatocytes (Sprague Dawley; NNH), and mouse hepatocytes (CD-1; Lot Mc522) were obtained from ThermoFisher (Paisley, UK). In separate experiments, compound 87 (1 μM) was incubated with hepatocytes from each species (0.5 million cells/mL, suspension) in Dulbecco's Modified Eagle's Medium (DMEM) supplemented with 4-(2-Hydroxyethyl)piperazine-1-ethanesulfonic acid (HEPES, 9 mM) and fructose (2.2 mM) (pH 7.5). Samples were quenched with acetonitrile and analyzed by LC-MS/MS. The mean CLint for Compound 87 in human, monkey, dog, rat, and mouse hepatocytes after incubation for 4 hours was determined to be ≤2.5, ≤2.5, 7.2, 23.6 and 10.7 μL/min/million cells. Based on these date, Compound 87 was low to moderately metabolized in hepatocytes in mouse, rat, dog, monkey, and human, and the rank order of stability at […] was approximately human>monkey>dog>mouse>rat. […] The metabolic stability of Compound 87 was not expected.

ABCD1 knockout (KO) mice = experiment: Reduction of blood C26:0 LPC in vivo in ABCD1 knockout mice (DBS, LC-MS/MS); set-up: species or system mouse
Description: Bioanalysis of LPC in Whole Blood and Brain Tissue:
A LC-MS/MS method of analyzing Lysophosphatidylcholine (LPC) in whole blood (dried blood spot card, DBS) and brain tissue samples was developed for measuring the abundance of saturated C16, C18, C20, C22, C24 and C26 LPC in DBS and brain samples. Whole blood was collected with Whatman DMPK-C DBS card at an approximate volume of 20 μL at each time point. Brain tissue was collected at the end point of the study. Samples were prepared and LC-MS/MS analysis was performed as described below.
Sample Preparation for LPC Bioanalysis:
For DBS bioanalysis, the DBS card was punched at 3 mm in diameter using a semi-automated DBS card puncher. To each punched spot 200 μL of pure methanol was added. The vial was vortexed at low speed for 20 minutes and centrifuged at 4000 rpm for 20 minutes. The clear supernatant was injected onto LC-MS/MS for analysis. For brain tissue bioanalysis, brain tissue was collected in a tared homogenization tube pre-filled with metal bead and weighted. To each sample vial two parts weight of methanol was added. The sample was homogenized using Precellys-24 at 5000 rpm for 20 seconds with one cycle. A 100 mg aliquot of homogenate was used for analysis. To each sample vial 400 μL of pure methanol was added. The vial was vortexed at low speed for 20 minutes and centrifuged at 4000 rpm for 20 minutes. The clear supernatant was injected onto LC-MS/MS for analysis.
The supernatant obtained from each sample was injected into a LC-MS/MS system (Agilent Technologies, Santa Clara, Calif. and Applied Biosystems, Framingham, Mass.) for analysis. All six LPC components (C16:0, C18:0, C20:0, C22:0, C24:0 and C26:0) were chromatographically separated using a Series 1290 binary pump and a Phenomenex (Torrance, Calif.) Kinetex C18 analytical column (2.1×100 mm, 5 μm particle diameter) with a 10-min gradient. A 5% acetonitrile in water solution was used as the aqueous phase and a 40% acetonitrile/60% methanol solution in 1% 2 Mol ammonium acetate was used as the organic mobile phase for achieving the chromatographic analysis. LPCs were detected by an AB Sciex API-6500 triple quadrupole MS with electrospray ionization in the mode of multiple reaction monitoring. Ions of Q1 were monitored at m/z of 496.6, 524.6, 552.6, 580.6, 608.6 and 636.6 for LPC 16:0, LPC 18:0, LPC 20:0, LPC 22:0, LPC 24:0 and LPC 26:0, respectively. A common Q3 ion m/z of 184.2 was used for all LPC analyses. C16:0 LPC levels were expressed as a concentration. All other LPC levels were expressed relative to C16. A one-way ANOVA with Dunnett's multiple comparisons test was performed to assess differences in LPC levels among the different groups. A value of P≤0.05 was considered statistically significant. All statistical analyses were conducted using Prism Software version 7.01 (GraphPad, La Jolla, Calif.).
Dosing in ABCD1 Knockout Mice:
To determine the effect of Compound 87 on blood VLCFA levels, Compound 87 was administered to ABCD1 knockout (KO) mice, a model that reproduces the C26:0 VLCFA accumulation observed in ALD patients. Specifically, Compound 87 was administered orally (PO) QD at 1, 8, or 16 mg/kg to ABCD1 KO mice (n=5 per group). DBS were collected on day 0 (pre-dosing), and daily through 14 days of dosing. DBS cards were stored at 4° C. in sealed ziplock bags with desiccant until they could be analyzed for LPC using the sample preparation and LC-MS/MS as described above. The vehicle used was 2% D-α-Tocopherol polyethylene glycol 1000 succinate (TPGS) and Compound 87 doses were prepared in 2% TPGS. […] Interperitoneal dosing, at 2 or 20 mg/kg (data not shown) or oral (PO) dosing at 1, 8, or 16 mg/kg (FIG. 2A) yielded similar results. A dose response was observed between 1 and 8 mg/kg. […] Error bars indicate standard deviation.
Daily Oral Dosing in ABCD1 Knockout Mice: […]

[2] = Metabolic intrinsic clearance in human hepatocytes; format: in vitro ADME; conditions: cryopreserved hepatocytes in suspension, pH 7.5, 0.5 million cells/mL, incubation for 4 hours
Description: as §1

O=C(Nc1ccn(-c2ccnc(F)c2)n1)C1(c2ccccc2F)CC1 [Compound 87, 1-(2-fluorophenyl)-N-[1-(2-fluoro-4-pyridyl)pyrazol-3-yl]cyclopropanecarboxamide]
hepatocyte CLint at 1 μM [1]: 10.7 µL/min/1e6 cells | Plasma C26:0 LPC levels (ABCD1 knockout (KO) mice; ABCD1 KO mice, 1, 8, or 16 mg/kg PO QD for 14 days): dropped over the first 8 days before plateauing at near WT baseline levels | reduction in C24:0 and C26:0 LPC levels compared to vehicle controls (ABCD1 knockout (KO) mice; ABCD1 KO mice, blood (DBS), 0.5 mg/kg PO QD for 28 days): 50% | reduction in C26:0 LPC levels (dose response plateau) (ABCD1 knockout (KO) mice; ABCD1 KO mice, blood (DBS), plateau between the 4 mg/kg and 8 mg/kg doses, PO QD 28 days): approximately 75% | time for LPC levels to return to baseline levels after compound discontinuation (ABCD1 knockout (KO) mice; adult female ABCD1 KO mice, 1 or 8 mg/kg PO QD for 14 days, then discontinued): approximately 1 week | C26:0 LPC reducing effect after discontinuation of treatment (ABCD1 knockout (KO) mice; adult female ABCD1 KO mice, 1 or 8 mg/kg PO QD for 14 days, then discontinued, blood LPC followed another 2 weeks): reversible; also recorded: to about baseline level | C26:0 LPC/C16:0 LPC levels in the blood (ABCD1 knockout (KO) mice; female ABCD1 KO mice, 1 and 10 mg/kg PO QD, 3 months of dosing): maintained at near WT levels | reduction in C26:0 LPC levels in vivo (ABCD1 knockout (KO) mice; female ABCD1 KO mice, blood (DBS), 1 mg/kg PO QD for 3 months): ~65% | reduction in C26:0 LPC levels in vivo (ABCD1 knockout (KO) mice; female ABCD1 KO mice, blood (DBS), 10 mg/kg PO QD for 3 months): ~70% | hepatocyte CLint at 1 μM [2]: ≤ 2.5 µL/min/1e6 cells

— patent publication US20180251431A1 (VERTEX PHARMACEUTICALS INCORPORATED, priority 2016, published 2018)
